This passage reports IC50 and AC50 results from ChEMBL document CHEMBL1201862, “PubChem BioAssay data set” (2004).

The source made the active and inactive calls.

By IC50 is commonly meant the concentration at which inhibition is half-maximal. As usually defined, the AC50 is the concentration at which the activity in the assay is half-maximal.

One test deals with Jurkat. In words: SAR Analysis of small molecule inhibitors of […] specific antigen receptor-induced NF-kB activation in a Jurkat cell line using a luminescence assay - Set 3. [Related pubchem assays (depositor defined):AID435022, AID435025, AID465]. It is filed as functional, cell-based. The conditions noted are these: Homo sapiens.
The test system of test [1] is HEK293. In words: SAR Analysis of small molecule inhibitors of B-cell specific antigen receptor-induced NF-kB activation in a HEK-293T cell line using a luminescence assay - Set 2. [Related pubchem assays (depositor defined):AID435022, AID435025, AID489021]. The test is classed as functional, cell-based. The settings on record: Homo sapiens.
In test [2] the test system is HEK293. In words: cytotoxicity in HEK293T NF-kB-Luc cells, SAR follow-up, cytotoxicity control for NF-kB activator project, cell-based, resazurin fluorescence (AID 493251). The test is classed as functional. The conditions noted are these: Homo sapiens. (In general: Resazurin is reduced to fluorescent resorufin, in cell work by metabolically active cells.)
Another test has as its target T1, Hexokinase-1 (Homo sapiens, UniProt P19367).
T1 sequence (P19367 whole entry): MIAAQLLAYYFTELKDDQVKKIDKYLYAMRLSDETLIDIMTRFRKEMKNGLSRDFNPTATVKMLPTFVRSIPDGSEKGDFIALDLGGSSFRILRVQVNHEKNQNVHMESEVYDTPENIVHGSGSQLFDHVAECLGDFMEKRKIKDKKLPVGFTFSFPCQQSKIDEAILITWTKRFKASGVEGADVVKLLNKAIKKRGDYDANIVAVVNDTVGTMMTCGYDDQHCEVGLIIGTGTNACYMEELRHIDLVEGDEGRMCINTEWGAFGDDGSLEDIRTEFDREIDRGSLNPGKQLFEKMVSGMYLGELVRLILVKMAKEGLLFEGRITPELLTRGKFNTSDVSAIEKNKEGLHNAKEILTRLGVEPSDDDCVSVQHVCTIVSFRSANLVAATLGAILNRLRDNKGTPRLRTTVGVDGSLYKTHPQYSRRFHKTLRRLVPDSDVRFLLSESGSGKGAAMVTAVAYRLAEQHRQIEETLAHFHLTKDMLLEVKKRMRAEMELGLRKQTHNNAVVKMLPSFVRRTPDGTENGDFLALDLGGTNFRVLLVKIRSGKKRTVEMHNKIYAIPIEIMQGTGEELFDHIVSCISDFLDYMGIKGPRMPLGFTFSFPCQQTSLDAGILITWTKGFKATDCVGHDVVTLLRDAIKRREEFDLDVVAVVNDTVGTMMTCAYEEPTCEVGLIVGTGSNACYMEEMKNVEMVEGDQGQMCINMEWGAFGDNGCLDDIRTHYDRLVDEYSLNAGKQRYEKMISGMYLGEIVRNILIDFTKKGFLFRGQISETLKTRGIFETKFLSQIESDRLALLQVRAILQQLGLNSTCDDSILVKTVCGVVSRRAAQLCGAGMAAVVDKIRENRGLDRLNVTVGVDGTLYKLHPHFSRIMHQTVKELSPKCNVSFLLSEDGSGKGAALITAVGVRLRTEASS
As to the kind of experiment: SAR analysis of small molecule inhibitors of hexokinase domain containing I (HKDC1) in the hexokinase 1 selectivity assay. [Related pubchem assays (depositor defined):AID493160, AID493190]. The test is classed as functional.

Another test deals with T2, Hexokinase HKDC1 (Homo sapiens, UniProt Q2TB90).
T2 sequence (Q2TB90 whole entry): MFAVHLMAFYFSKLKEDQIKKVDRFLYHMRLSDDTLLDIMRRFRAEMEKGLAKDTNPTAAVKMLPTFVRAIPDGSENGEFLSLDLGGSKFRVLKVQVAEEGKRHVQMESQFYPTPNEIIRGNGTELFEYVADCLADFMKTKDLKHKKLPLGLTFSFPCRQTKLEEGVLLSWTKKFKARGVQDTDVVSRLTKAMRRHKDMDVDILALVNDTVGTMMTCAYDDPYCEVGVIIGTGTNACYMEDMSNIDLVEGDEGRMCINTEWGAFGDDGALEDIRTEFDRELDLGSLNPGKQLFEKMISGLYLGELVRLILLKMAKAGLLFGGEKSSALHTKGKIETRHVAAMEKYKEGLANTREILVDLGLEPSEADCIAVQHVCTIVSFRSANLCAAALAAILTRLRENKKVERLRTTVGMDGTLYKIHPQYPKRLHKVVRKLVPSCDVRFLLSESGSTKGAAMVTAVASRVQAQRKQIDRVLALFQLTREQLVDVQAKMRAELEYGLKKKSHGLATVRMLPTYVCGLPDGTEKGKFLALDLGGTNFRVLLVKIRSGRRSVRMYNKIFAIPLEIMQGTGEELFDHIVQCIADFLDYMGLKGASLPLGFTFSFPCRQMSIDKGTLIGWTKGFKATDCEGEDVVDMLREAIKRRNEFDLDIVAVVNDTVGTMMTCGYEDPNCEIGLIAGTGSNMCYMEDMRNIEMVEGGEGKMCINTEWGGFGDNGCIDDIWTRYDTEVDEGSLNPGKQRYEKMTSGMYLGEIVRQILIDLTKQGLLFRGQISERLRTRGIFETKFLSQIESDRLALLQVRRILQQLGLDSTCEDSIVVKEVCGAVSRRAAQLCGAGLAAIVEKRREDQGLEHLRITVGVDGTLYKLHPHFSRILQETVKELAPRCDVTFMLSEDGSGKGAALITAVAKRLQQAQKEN
In words: SAR analysis of small molecule inhibitors of hexokinase domain containing I (HKDC1). [Related pubchem assays (depositor defined):AID493160, AID493190]. The test is classed as functional.

For a further test, the target named is DNA topoisomerase (Yersinia pestis, UniProt A0A2S9PM60). As to the kind of experiment: Y. pestis Topo-I inhibitors, cleavage product readout, dose response, biochemical, cherry-pick (AID 588525).
Chain of DNA topoisomerase (A0A2S9PM60 whole entry): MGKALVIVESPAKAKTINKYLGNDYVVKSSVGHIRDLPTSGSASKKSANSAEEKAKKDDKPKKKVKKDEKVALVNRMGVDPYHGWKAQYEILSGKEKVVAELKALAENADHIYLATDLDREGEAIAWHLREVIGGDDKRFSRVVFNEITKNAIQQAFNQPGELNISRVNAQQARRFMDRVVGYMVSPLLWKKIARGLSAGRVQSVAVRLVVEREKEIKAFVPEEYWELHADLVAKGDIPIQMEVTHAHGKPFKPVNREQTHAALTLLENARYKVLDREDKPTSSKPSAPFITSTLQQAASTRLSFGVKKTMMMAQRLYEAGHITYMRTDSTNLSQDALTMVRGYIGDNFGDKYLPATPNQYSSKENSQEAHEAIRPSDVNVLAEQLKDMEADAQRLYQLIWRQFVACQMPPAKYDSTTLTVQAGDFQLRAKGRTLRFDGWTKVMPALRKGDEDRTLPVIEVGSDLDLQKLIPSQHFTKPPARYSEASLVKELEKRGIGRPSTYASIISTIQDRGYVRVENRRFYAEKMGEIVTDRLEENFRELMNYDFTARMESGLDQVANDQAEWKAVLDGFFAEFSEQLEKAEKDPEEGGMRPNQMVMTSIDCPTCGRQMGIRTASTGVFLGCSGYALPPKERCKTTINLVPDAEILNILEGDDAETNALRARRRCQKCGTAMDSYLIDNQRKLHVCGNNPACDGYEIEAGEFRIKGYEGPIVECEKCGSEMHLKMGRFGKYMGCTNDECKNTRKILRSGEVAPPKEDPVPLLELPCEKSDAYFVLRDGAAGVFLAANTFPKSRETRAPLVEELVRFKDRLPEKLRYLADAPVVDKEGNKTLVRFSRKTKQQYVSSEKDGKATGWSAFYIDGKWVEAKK
A short description of test [3]: ADAM10 inhibitors, peptide cleavage, dose response, biochemical, QFRET (AID 743254).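 Note: ADAM10 enzyme with the DM2 quenched FRET peptide as substrate; EDANS fluorescence gain as the protease cuts the substrate; inhibitor potency against ADAM10 proteolytic activity.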
Test [4] has as its target Disintegrin and metalloproteinase domain-containing protein 17 (Homo sapiens, UniProt P78536). As to the kind of experiment: ADAM17 protease inhibitors, dose response, counter-screen for ADAM10 exosite inhibitor project, biochemical, quenched FRET substrate (AID 743253).

Chain of Disintegrin and metalloproteinase domain-containing protein 17 (P78536 whole entry, the tested form may be a part): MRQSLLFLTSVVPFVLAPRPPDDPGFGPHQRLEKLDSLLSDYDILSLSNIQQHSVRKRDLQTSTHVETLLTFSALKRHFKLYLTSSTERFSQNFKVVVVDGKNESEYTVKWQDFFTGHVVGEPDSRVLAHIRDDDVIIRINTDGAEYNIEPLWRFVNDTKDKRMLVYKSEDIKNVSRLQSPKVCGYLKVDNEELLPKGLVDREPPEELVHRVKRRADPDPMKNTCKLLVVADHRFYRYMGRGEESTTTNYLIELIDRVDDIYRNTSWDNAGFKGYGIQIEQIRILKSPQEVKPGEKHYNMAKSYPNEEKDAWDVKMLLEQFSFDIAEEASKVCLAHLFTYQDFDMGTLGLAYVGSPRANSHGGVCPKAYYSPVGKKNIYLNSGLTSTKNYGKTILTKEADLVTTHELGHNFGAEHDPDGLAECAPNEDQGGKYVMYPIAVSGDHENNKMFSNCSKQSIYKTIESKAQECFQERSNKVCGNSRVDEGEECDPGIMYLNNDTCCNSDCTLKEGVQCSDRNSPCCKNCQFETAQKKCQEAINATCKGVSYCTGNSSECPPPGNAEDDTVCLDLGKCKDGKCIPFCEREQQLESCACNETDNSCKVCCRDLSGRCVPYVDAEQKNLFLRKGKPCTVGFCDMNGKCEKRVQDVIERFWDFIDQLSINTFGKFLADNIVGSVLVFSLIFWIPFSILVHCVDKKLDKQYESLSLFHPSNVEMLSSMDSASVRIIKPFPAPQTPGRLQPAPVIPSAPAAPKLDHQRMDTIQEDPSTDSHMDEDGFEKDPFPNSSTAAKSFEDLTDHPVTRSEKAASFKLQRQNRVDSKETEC

With `COc1cccc(NC(=O)CCc2nc(-c3ccc(C(C)(C)C)cc3)no2)c1`, the IC50 was 0.242 µM (active) with Jurkat, 0.24 µM (active) with HEK293 [1] and > 80 µM (inactive) with HEK293 [2].
For `O=c1c2ccccc2nc(/C=C/c2ccccn2)n1-c1ccccc1`, the IC50 at Hexokinase-1 and on Hexokinase HKDC1 was > 80 µM (inactive) in each case.
On to `Cc1cc(C)c2c(=O)n3c(nc2c1)C(Cc1ccc(O)cc1)NC(=O)c1cc2ccccc2cc1-3` (stereo not drawn), for which the AC50 on DNA topoisomerase was 9.07 µM (active). The IC50 in test [3] and in test [4] was > 69.5 µM (inactive) throughout.
